Laboratory results: paper PMC2566978, “Inversion of allosteric effect of arginine on N-acetylglutamate synthase, a molecular marker for evolution of tetrapods” (BMC Biochemistry, 2008)

How the values were obtained:
Assay in all cases: NAGS activity assay, purified enzyme
Assay type in all cases: biochemical
[1] = target: T1, NAGS from X. tropicalis (Western clawed frog) (Xenopus tropicalis, UniProt F6X3J6); settings: 50 mM glutamate, 12.5 mM AcCoA, room temperature; allosteric activator
T1 sequence (F6X3J6 39-491): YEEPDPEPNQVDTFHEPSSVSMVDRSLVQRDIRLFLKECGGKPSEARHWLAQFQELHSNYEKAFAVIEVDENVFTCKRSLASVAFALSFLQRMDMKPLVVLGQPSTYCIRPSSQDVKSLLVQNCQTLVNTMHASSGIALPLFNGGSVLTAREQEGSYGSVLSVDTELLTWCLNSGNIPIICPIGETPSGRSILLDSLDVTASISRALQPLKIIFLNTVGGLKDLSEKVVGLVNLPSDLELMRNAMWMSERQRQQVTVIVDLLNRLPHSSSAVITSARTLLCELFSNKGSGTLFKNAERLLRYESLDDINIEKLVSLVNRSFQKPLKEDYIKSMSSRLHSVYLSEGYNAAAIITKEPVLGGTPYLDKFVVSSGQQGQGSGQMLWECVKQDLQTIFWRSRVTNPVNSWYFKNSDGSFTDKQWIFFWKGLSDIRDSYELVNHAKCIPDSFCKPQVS

pufferfish NAGS = target: T2, pufferfish NAGS (Takifugu rubripes, UniProt H2T4D9); settings: read-out: % inhibition at 1 mM
T2 sequence (H2T4D9 51-529): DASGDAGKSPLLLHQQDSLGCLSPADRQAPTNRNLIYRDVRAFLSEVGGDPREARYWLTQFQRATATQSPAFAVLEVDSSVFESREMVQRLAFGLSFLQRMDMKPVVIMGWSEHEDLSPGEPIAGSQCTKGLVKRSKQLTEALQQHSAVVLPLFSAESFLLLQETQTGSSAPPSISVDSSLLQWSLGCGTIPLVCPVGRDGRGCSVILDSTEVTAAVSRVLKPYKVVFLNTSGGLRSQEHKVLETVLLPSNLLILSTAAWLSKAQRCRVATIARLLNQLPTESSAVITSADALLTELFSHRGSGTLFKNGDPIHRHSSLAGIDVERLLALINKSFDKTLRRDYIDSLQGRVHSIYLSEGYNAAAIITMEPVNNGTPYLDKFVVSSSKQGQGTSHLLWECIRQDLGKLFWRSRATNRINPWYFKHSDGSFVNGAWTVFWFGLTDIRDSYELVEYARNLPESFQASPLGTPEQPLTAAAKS

zebrafish NAGS = target: T3, zebrafish NAGS (Danio rerio, UniProt E7FCP8); settings: read-out: % inhibition at 1 mM
T3 sequence (E7FCP8 40-527): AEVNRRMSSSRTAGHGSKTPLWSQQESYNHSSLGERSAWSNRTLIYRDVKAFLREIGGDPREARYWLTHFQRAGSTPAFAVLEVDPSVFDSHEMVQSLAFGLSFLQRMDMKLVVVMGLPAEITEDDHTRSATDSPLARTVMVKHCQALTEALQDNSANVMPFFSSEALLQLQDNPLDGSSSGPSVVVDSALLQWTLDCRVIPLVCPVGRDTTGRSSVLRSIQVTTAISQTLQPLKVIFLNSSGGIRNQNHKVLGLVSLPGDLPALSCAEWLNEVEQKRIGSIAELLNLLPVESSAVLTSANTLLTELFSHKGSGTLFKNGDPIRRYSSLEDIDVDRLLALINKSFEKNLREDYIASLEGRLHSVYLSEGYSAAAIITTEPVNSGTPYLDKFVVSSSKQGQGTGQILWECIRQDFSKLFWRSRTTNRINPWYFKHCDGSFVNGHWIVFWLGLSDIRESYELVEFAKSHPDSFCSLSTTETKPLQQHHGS

[2] = target: T4, NAGS from X. laevis (African clawed frog) (Xenopus laevis, UniProt A0A8J1M136); settings: 50 mM glutamate, 12.5 mM AcCoA, room temperature; allosteric activator
T4 construct: gene LOC108702180
T4 sequence (A0A8J1M136 31-491): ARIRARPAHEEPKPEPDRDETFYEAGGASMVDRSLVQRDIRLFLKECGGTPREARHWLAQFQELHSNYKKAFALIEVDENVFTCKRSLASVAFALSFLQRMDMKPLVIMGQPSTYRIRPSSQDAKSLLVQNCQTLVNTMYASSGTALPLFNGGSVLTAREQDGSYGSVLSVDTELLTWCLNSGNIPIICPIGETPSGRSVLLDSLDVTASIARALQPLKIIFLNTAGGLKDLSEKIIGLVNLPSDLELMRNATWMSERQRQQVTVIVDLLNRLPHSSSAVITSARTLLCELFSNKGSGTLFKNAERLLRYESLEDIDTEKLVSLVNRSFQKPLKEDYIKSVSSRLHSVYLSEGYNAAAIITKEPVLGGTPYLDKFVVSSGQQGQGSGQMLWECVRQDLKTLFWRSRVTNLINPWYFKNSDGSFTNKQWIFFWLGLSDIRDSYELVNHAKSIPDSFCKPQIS

SMILES: N=C(N)NCCC[C@H](N)C(=O)O [L-arginine]
- % activation at 1 mM [1]: 38%
- inhibition at 1000 µM (pufferfish NAGS): ~20%
- inhibition at 1000 µM (zebrafish NAGS): ~50%
- % activation at 1 mM [2]: 20%
